Experimental findings from a melting point compilation (Tetko et al.; mined from patent text by program, amines drawn as free bases though some values may be those of a salt) are described below.

As usually defined, the melting point is the temperature, or range, at which the solid turns liquid.

SMILES strings stand for the structures. A value given as a limit tells only on which side of the number the result lay.

Compound `CN(C)c1ccc(/C=C/c2c(F)ccc(F)c2F)cc1` showed a melting point of 91 to 92 °C. The compound `O=C1CN(c2cncc(Cl)n2)CCN1` returned a melting point of 192 to 193 °C. As for `CCCCc1nc2c(N)nc3ccccc3c2n1CCCCS(=O)(=O)c1ccccc1`, the figure is 179 to 180 °C. As for `CC1(C)CCc2c(N3CCCC3)nc3sc4c(NCc5ccccn5)ncnc4c3c2C1`, the figure is 212 to 213 °C; as for `NS(=O)(=O)c1ccc(-n2ncc(F)c2-c2ccccc2)cc1`, 194 °C; as for `CN(c1ccc(Cl)cc1)c1nc(=O)c2ccncc2s1`, 255 to 256 °C. `O=Cc1c2cccc(Cl)c2c(Cl)c2c(Cl)cccc12` displayed a melting point of 118 to 120 °C.

Compound `COc1cc(C(=O)c2ccc(CC(=O)O)s2)cc(OC)c1OC` returned a melting point of 124 °C. `Cc1occc1C(=O)N(O)C1CCCCC1` returned a melting point of 108 to 110 °C. In the case of `Cc1ccc(C)n1C1=CC2=C(CC1)CCc1[nH]c(=O)c(=O)[nH]c12`, the melting point was greater than 265 °C.

Take `Cc1ccc2c([N+](=O)[O-])c(F)ccc2n1`: the melting point fell in the range of 105 to 108 °C. With `O=C(NC1Cc2cccc(-c3ccc(F)cc3)c2C1)c1ccc(F)cc1` (stereo not given), the melting point came out at 157 °C. The compound `C=CCOC(=O)c1ccc(C(=O)SCc2ccc3c(c2)C(C)(C)CCC3(C)C)cc1` gave a melting point of 79 to 80 °C. Take `CCN1C(=O)C(C(=O)Nc2ccc(Cl)cc2)c2cc3c(cc21)CCO3` (stereo not given): the melting point lay in the range of 175 to 176 °C.

On to `COc1cc(OC)cc(-c2ncn(-c3cc(OC)c(OC)c(OC)c3)c2-c2ccc(N(C)C)cc2)c1`, for which the melting point fell in the range of 151 to 154 °C. The figure for `CN(C)c1ccc(/C=C/c2c(F)cccc2F)c([N+](=O)[O-])c1` is 152 to 153 °C.

`CCN(CC)CCC(N)=NO` displayed a melting point of 52 to 54 °C.

Compound `OC1CCN(CC(O)c2cc(-c3ccccc3)on2)CC1` (stereo not given) registered a melting point of 117 to 119 °C.

Compound `Clc1c(CBr)ccc2c(Cl)c(CBr)ccc12` gave a melting point of 219 to 221 °C. Compound `CN1Cc2c(Cl)ccc3scc(c23)S1(=O)=O` registered a melting point of 196 °C.

`CC(=O)C(=O)Oc1ccc(NCc2c(F)c(F)c(C(F)(F)F)c(F)c2F)cc1C(=O)O` came in with a melting point of 128 °C. As for `Cc1[nH]cc2c(=O)n(-c3ccc(Cl)cc3)nc-2c1-c1cccc(I)c1`, the figure is 306 to 312 °C. `CCOC(=O)C(=CNc1ccccc1OC)C(C)=O` came in with a melting point of 103 to 105 °C. As for `C=CC(=O)NC1Cc2ccc(-c3ccc(=O)[nH]n3)cc2C1` (stereo not given), the figure is 235 to 237 °C; as for `O=C(NC1CCN(Cc2ccccc2)CC1)c1ccc(NCc2ccnc3ccccc23)cc1`, 184 to 188 °C. In turn, `CC1(C)OC(=S)Nc2ccc(-c3ccc(F)c(Cl)c3)cc21` came in with a melting point of 196 to 197 °C. The figure for `CCCCCCCCCCCCCCCSCCCO` is 36 to 39 °C; for `CC(O)CCNc1cc(C(=O)O)cc(S(N)(=O)=O)c1Oc1ccccc1` (stereo not given) it is 245 to 247 °C.

For the compound `O=C1OCc2c1oc1c(F)cccc1c2=O`, the melting point came to 164 °C.

As to `Cn1c(-c2ccc3ccccc3c2)nnc1S(C)(=O)=O`, the melting point fell in the range of 204 to 206 °C. `NCCC(=O)N(c1ccccc1)c1ccccc1` showed a melting point of 50 °C.

The compound `Cc1nc(CC(C)C)c(C#N)c(-c2ccc(Cl)cc2)c1C(=O)OC(C)(C)C` had a melting point of 70 to 72 °C.

The compound `CCOc1cc2c(cc1O)C(=NO)CC1C2CCC2(C)C(OC(C)=O)CCC12` (stereo not given) displayed a melting point of 226 to 227 °C. The figure for `CCN1CC(=O)Nc2cc(Nc3ncc(Cl)c(Nc4ccccc4S(=O)(=O)N(C)C)n3)c(OC)cc2C1` is 175 °C; for `CCOC(=O)Oc1ccc(/C(=C(/CC)c2ccccc2)c2ccc(/C=C/C(=O)O)cc2)cc1` it is 135 to 136 °C.

The compound `N[C@H]1CC[C@H](CN2CCC(=C3c4ccccc4Sc4ccc(Cl)cc43)CC2)CC1` registered a melting point of 128 to 135 °C.

As for `CC(=O)N(c1cccc(C(=O)O)c1)c1cc(C(C)(C)C)c(O)c(C(C)(C)C)c1`, the melting point was in the range of 204 to 206 °C.

In the case of `Clc1ccc(N2CCN(Cc3coc4cccnc34)CC2)cc1`, the melting point was 128 to 129 °C. As for `CC(C)c1n[nH]c2c(NCc3ccccc3Br)ncnc12`, the figure is 194 to 196 °C; as for `COc1ccc(CN(C)CCc2ccc(NC(=O)c3cccc4c(=O)c5cccc(F)c5[nH]c34)c(C)c2)cc1OC`, 125 °C. The figure for `CC(CBr)N1CCN(c2ccccn2)CC1` (stereo not given) is 50 to 51 °C; for `CCCN1CCC=C(c2cccc3[nH]ccc23)C1` it is 168 °C; for `O=[N+]([O-])c1nccn1CC(O)CC1C2CCCN21` (stereo not given) it is 81 to 81.5 °C. Compound `O=C(O)/C=C/c1ccc(-c2nc3c(=O)n(CCC4CCCCC4)c(=O)n(CCC4CCCCC4)c3[nH]2)cc1` registered a melting point greater than 250 °C. The compound `COC(=O)c1ccc2c(c1)c(=O)[nH]c(=O)n2CCCCN1CCC(OC(c2ccccc2)c2ccccc2)CC1` came in with a melting point of 151 to 153 °C. As for `O=S(=O)(c1ccccc1)N1CCC(C(O)(c2ccc(F)c(F)c2)c2ccc(F)c(F)c2)CC1`, the figure is 152 to 154 °C; as for `COCc1c(C=C(Br)Br)ncc2c1c1c(OCc3ccccc3)cccc1n2S(=O)(=O)c1ccc(C)cc1`, 149 to 152 °C; as for `CCCCNc1c(N)c(S)nc(C)c1C(=O)OCC`, 103 to 105 °C. Take `CC(C)=CC(C)(S)[C@@H](NC=O)C(=O)O` (stereo not given in full): the melting point was in the range of 183 to 184 °C.

Turning to `CC1(C)NCCc2ccccc2C1c1ccccc1` (stereo not given), the melting point was in the range of 99 to 100 °C. `CC(C(=O)O)c1ccc(Oc2ccc(F)cc2)c(Cl)c1` (stereo not given): the melting point lay within 68 to 70 °C. The figure for `O=C(NC1CCCCC1)c1ccc2nonc2c1` is 172 to 173 °C; for `CCOC(=O)C(Cc1ccc(O)cc1)Oc1ccc(Cl)cc1` (stereo not given) it is 90 to 93 °C. The figure for `CC12CCCC1C1CC=C3CC(O)CC(O)C3(C)C1CC2` (stereo not given) is 182 to 183 °C; for `CCN1c2ncccc2C(=O)N(C)c2ccc(-c3cccn3C(C)=O)nc21` it is 106 to 108 °C; for `COC=C(C(=O)OC)N(C)c1nc(-c2ccc(Cl)cc2)cs1` it is 104 to 105 °C.

Compound `C=Cc1c(NCc2ccco2)nc(-c2ccc(Cl)c(OC)c2F)nc1C(=O)OC` gave a melting point of 100 to 102 °C. As for `COP(=O)(O)Cc1ccc(O)cc1`, the figure is 89 to 91 °C; as for `CCOc1cc2c(cc1OCC)CCCC(C(=O)N1CCN(Cc3cc(OC)c(OC)c(OC)c3)CC1)=C2`, 133 to 134 °C. Take `CC(C)On1c(C2CCCCC2)nc2c(N)nc3ccccc3c21`: the melting point lay within 175 to 178 °C. As for `CS(=O)(=O)c1cc(C(=O)O)ccc1Oc1ccc([N+](=O)[O-])cc1`, the figure is 140 to 150 °C. The figure for `CCc1cc([N+](=O)[O-])cc([N+](=O)[O-])c1Cl` is 41 to 44 °C; for `CSc1cc(C)nc(SC)c1NC(=O)C=CC1=C(c2ccccc2)c2ccccc2OC1` it is 225 to 227 °C; for `CCc1noc(C)c1-c1[nH]c2ccccc2c1C(C)=O` it is 170 to 173 °C.

Consider `O=[N+]([O-])c1cccc(CO)c1I`, for which the melting point is 91 to 91.5 °C. The figure for `COC(=O)CCc1cnoc1-c1ccc(Cl)c(Cl)c1` is 74 to 75 °C; for `COc1cc2c(c3c1OC(C)(C)C3)C(c1cccc(NC(=O)c3ccc(CP(=O)(O)O)cc3)c1)=NC(C)(C)C2` it is 237 to 241 °C; for `CCOC(=O)C(CC(=O)c1ccc2cc(OC)ccc2c1)C(=O)c1ccccc1` (stereo not given) it is 136 to 137 °C. As for `Cc1ccc(COC(=O)C(=O)OCc2ccc(C)cc2)cc1`, the figure is 100 °C; as for `CC(=O)OCC(=O)C1=CCC2C3CCC4=CC(=O)CCC4(C)C3=CCC12C` (stereo not given), 128 to 129 °C. As for `N#Cc1ccc(CC2CCN(Cc3ccccc3)CC2)cc1`, the figure is 95 to 96 °C; as for `CC#CCOc1ccc(S(=O)(=O)NC2(C(=O)NO)CCCCC2)cc1`, 82 to 84 °C; as for `CC1CN(c2c(F)cc3c(=O)c(C(=O)O)cn4c3c2OCC4C)CC1NC(=O)OC(C)(C)C` (stereo not given), 206 to 207 °C. The compound `CCOc1ccc(-c2nc(-c3cccc(C#N)n3)cs2)cc1OCC` registered a melting point of 134 to 136 °C.

With `CCOC(=O)Cn1cc(C(=O)NCCN(C)C)c2nc3c(C)cccc3cc2c1=O`, the melting point fell in the range of 214 to 215 °C. The figure for `CCOc1ccc(Cc2cnc(N)nc2N)cc1OC` is 195 to 196 °C. Compound `CC(C)N(N)C(=O)c1ccc(-c2ccc(Cl)cc2)o1` came in with a melting point of 142 to 144 °C. As for `CCNC(=O)Oc1ccc2c(N(C)CCN3CCOCC3)noc2c1`, the figure is 99 to 100 °C. The figure for `CN(C)C=C1CCN(Cc2ccc([N+](=O)[O-])cc2)c2ccsc2C1=O` is 214 to 216 °C. As for `CCN(CC)c1nc(CO)cs1`, the figure is 67 to 69 °C. `O=S(=O)(C(=CNc1ccccc1C(F)(F)F)S(=O)(=O)c1ccc(Cl)cc1)c1ccc(Cl)cc1` returned a melting point of 169 to 171 °C.

As for `CC(C)CCN1C(=O)C(NC(=O)Oc2cccc(N(C)C)c2)C(=O)N(c2ccccc2)c2cc(F)ccc21` (stereo not given), the melting point lay within 229 to 230 °C. The compound `Nc1ccc(Nc2ccc(CCc3ccc(Cl)c(Cl)c3)cc2)c(C(=O)O)c1` gave a melting point of 137 to 142 °C. The figure for `Cc1nc(N2CCN(CC3CCCCC3)C2=O)sc1C(=O)NCc1cccnc1` is 134 to 136 °C.

For `O=C(CBr)Nc1ccc(F)cc1C(=O)O`, the melting point fell in the range of 191 to 192 °C. As for `CC1C(c2ccc(Cl)cc2)SC(=O)N1C(=O)NN1CCCCC1` (stereo not given), the figure is 92 to 93 °C. As for `Cc1cc(-c2cccc(NC(=O)C3CC3)c2)n2ncc(C(=O)c3cccs3)c2n1`, the figure is 184 to 186 °C; as for `CC(C)c1cc(Cl)cc(C(C)C)c1NC(=O)NS(=O)(=O)c1cc(C2(C)OCCO2)ccc1F`, 168 to 170 °C. As for `CCN(Cc1ccc(OC(C)(C)C(=O)O)c(C)c1)c1cc(-c2ccc(Cl)cc2)nn1C`, the figure is 208 °C. For the compound `CC(C)(C)c1cc(-c2ccc(F)cc2)cc(C(C)(C)C)c1O`, the melting point is 97 to 99 °C.
